The test system of one data set is Smn protein. The data set can be described thus: Smn protein assay in cultured cells (SMN HTRF). The data set is classed as cell-based, human. Particulars: 48 hours; for EC1.5x (concentration giving 1.5-fold Smn protein increase): SMA Type 1 patient fibroblast cells (GM03813), 7-point concentration curve, SMN HTRF, concentration producing 1.5 times Smn protein vs DMSO vehicle control, read-out: EC1.5x for Smn protein expression; for maximum fold (Fold) increase of Smn protein: SMA patient fibroblast cells, 7-point concentration data, fold increase relative to vehicle control (SMN HTRF). In short, it runs like this:
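Lysates in RIPA with protease inhibitors are incubated overnight at room temperature with HTRF anti-SMN antibodies. EC1.5x is derived from fold increase in ΔF over vehicle.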

In data set [1] the test system is SMN2 minigene (full length SMN2 minigene mRNA containing SMN2 exon 7). The data set can be described thus: SMN2 minigene mRNA splicing RT-qPCR assay in cultured cells. The data set is classed as cell-based, human. The settings on record: Homo sapiens, HEK293-H; HEK293H cells stably transfected with SMN2-A minigene; 24 hours; 7-point concentration curve; 1.5-fold relative to vehicle-treated cells; read-out: EC1.5x for production of full length SMN2 mRNA. The essentials: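 Read-out: full-length (exon 7-included) SMN2 minigene mRNA by multiplex RT-qPCR with GAPDH, efficiency-corrected (1+E)^−Ct, GAPDH-normalized and divided by vehicle. Stably transfected HEK293H cells, 24 h compound exposure, duplicates per concentration. Value is EC1.5x, reported as star ranges.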

For the compound `Cc1cn2cc(-c3cc4ccc(N5CCN6CCCCC6C5)cc4oc3=O)nc2cn1` (stereo not shown) [Compound 635, 3-(6-methylimidazo[1,2-a]pyrazin-2-yl)-7-(octahydro-2H-pyrido[1,2-a]pyrazin-2-yl)-2H-chromen-2-one], the melting point is 275 to 277 °C. In the data set on Smn protein, the EC1.5x (concentration giving 1.5-fold Smn protein increase) is < 300 nM; the “maximum fold (Fold) increase of Smn protein” value (from here on “maximum fold (Fold) increase”) was “**** (fold increase between >1.5 and ≤1.65)”. For the same compound, in data set [1], the EC (1.5-fold) is < 0.1 µM.
In the case of `Cc1cn2cc(-c3cc4ccc(OCCN[C@H](C)CO)cc4oc3=O)nc2c(C)n1` [Compound 946, 3-(6,8-dimethylimidazo[1,2-a]pyrazin-2-yl)-7-(2-{[(2R)-1-hydroxypropan-2-yl]amino}ethoxy)-2H-chromen-2-one], the melting point was 185 to 188 °C. In addition, in the data set with Smn protein, the EC1.5x (concentration giving 1.5-fold Smn protein increase) is < 300 nM; the “maximum fold (Fold) increase” value was “**** (fold increase between >1.5 and ≤1.65)”. The EC (1.5-fold) in data set [1] is < 0.1 µM.
On to `CC(C)NCc1ccc2cc(-c3cn4ccsc4n3)c(=O)oc2c1` [Compound 199, 3-(imidazo[2,1-b][1,3]thiazol-6-yl)-7-[(propan-2-ylamino)methyl]-2H-chromen-2-one], for which the melting point lay within 141 to 145 °C. For the same compound, the “maximum fold (Fold) increase” value in the data set with Smn protein was “** (fold increase between >1.2 and ≤1.35)”. The EC (1.5-fold) in data set [1] lay in the range of 1 to 3 µM.
`Cc1cn2cc(-c3cc4ccc(C5CCN(CC(C)C)CC5)cc4oc3=O)nc2c(C)n1` [Compound 914, 3-(6,8-dimethylimidazo[1,2-a]pyrazin-2-yl)-7-[1-(2-methylpropyl)piperidin-4-yl]-2H-chromen-2-one] displayed a melting point of 191 to 198 °C. Also, in the data set on Smn protein, the EC1.5x (concentration giving 1.5-fold Smn protein increase) was < 300 nM; the “maximum fold (Fold) increase” value is “**** (fold increase between >1.5 and ≤1.65)”. In data set [1], the EC (1.5-fold) is < 0.1 µM.
`O=c1oc2cc(N3CCNCC3)cc(F)c2cc1-c1nc2ccccc2s1` [Cpd 160, 3-(1,3-benzothiazol-2-yl)-5-fluoro-7-(piperazin-1-yl)-2H-chromen-2-one] yielded a melting point of 256 to 260 °C. In addition, the “maximum fold (Fold) increase” value with Smn protein is recorded as “* (maximum fold increase of ≤1.2)”. Besides, in data set [1], the EC (1.5-fold) lay in the range of 0.3 to 1 µM.
In turn, `Cc1cn2cc(-c3cc4ccc(N5CCN6CCC[C@H]6C5)cc4oc3=O)nc2c(C)n1` [Compound 634, 3-(6,8-dimethylimidazo[1,2-a]pyrazin-2-yl)-7-[(8aS)-hexahydropyrrolo[1,2-a]pyrazin-2(1H)-yl]-2H-chromen-2-one] came in with a melting point of 261 to 263 °C. In the data set on Smn protein, the EC1.5x (concentration giving 1.5-fold Smn protein increase) was < 300 nM and the “maximum fold (Fold) increase” value was “***** (fold increase >1.65)”. In addition, in data set [1], the EC (1.5-fold) was < 0.1 µM.
`Cc1cn2cc(-c3cc4ccc(N5C[C@@H]6[C@H](C5)[C@H]6N(C)C)cc4oc3=O)nc2c(C)n1` [Compound 761, 7-[(1R,5S,6s)-6-(dimethylamino)-3-azabicyclo[3.1.0]hex-3-yl]-3-(6,8-dimethylimidazo[1,2-a]pyrazin-2-yl)-2H-chromen-2-one] came in with a melting point of 271 to 274 °C. In the data set with Smn protein, the EC1.5x (concentration giving 1.5-fold Smn protein increase) was < 300 nM; the “maximum fold (Fold) increase” value is “**** (fold increase between >1.5 and ≤1.65)”. Besides, in data set [1], the EC (1.5-fold) is < 0.1 µM.
Turning to `Cc1cn2cc(-c3cc4ccc(OC5CCN(C(CO)CO)CC5)cc4oc3=O)nc2c(C)n1` [Compound 915, 7-{[1-(1,3-dihydroxypropan-2-yl)piperidin-4-yl]oxy}-3-(6,8-dimethylimidazo[1,2-a]pyrazin-2-yl)-2H-chromen-2-one], the melting point was 206 to 210 °C. In the data set on Smn protein, the EC1.5x (concentration giving 1.5-fold Smn protein increase) is 300 to 1000 nM; the “maximum fold (Fold) increase” value is “**** (fold increase between >1.5 and ≤1.65)”. The EC (1.5-fold) in data set [1] was < 0.1 µM.
`C[C@H]1CN(c2ccc3cc(-c4cn5cccc(Cl)c5n4)c(=O)oc3c2)CCN1C` [Compound 339, 3-(8-chloroimidazo[1,2-a]pyridin-2-yl)-7-[(3S)-3,4-dimethylpiperazin-1-yl]-2H-chromen-2-one] had a melting point of 184 to 186 °C. In the data set on Smn protein, the “maximum fold (Fold) increase” value is recorded as “* (maximum fold increase of ≤1.2)”. Also, in data set [1], the EC (1.5-fold) is 0.1 to 0.3 µM.
`Cc1cccn2cc(-c3cc4ccc(N5CCN(C)CC5)cc4oc3=O)nc12` [Compound 84, 3-(8-methylimidazo[1,2-a]pyridin-2-yl)-7-(4-methylpiperazin-1-yl)-2H-chromen-2-one] came in with a melting point of 224 to 226 °C. Moreover, in the data set on Smn protein, the EC1.5x (concentration giving 1.5-fold Smn protein increase) is 1000 to 3000 nM; the “maximum fold (Fold) increase” value is “*** (fold increase between >1.35 and ≤1.5)”. Also, the EC (1.5-fold) in data set [1] is 0.3 to 1 µM.
Turning to `O=c1oc2cc(N3CCN(CCO)CC3)ccc2cc1-c1cn2cc(Cl)ccc2n1` [Compound 104, 3-(6-chloroimidazo[1,2-a]pyridin-2-yl)-7-[4-(2-hydroxyethyl)piperazin-1-yl]-2H-chromen-2-one], the melting point lay in the range of 245 to 250 °C. In addition, in the data set on Smn protein, the “maximum fold (Fold) increase” value is “*** (fold increase between >1.35 and ≤1.5)”. Also, the EC (1.5-fold) in data set [1] lay in the range of 3 to 30 µM.
Regarding `Cc1nc(Cl)cn2cc(-c3cc4ccc(N5CCN6CCC[C@@H]6C5)cc4oc3=O)nc12` [Compound 710, 3-(6-chloro-8-methylimidazo[1,2-a]pyrazin-2-yl)-7-[(8aR)-hexahydropyrrolo[1,2-a]pyrazin-2(1H)-yl]-2H-chromen-2-one], the melting point was 268 to 272 °C. In the data set on Smn protein, the “maximum fold (Fold) increase” value is “** (fold increase between >1.2 and ≤1.35)”. The EC (1.5-fold) in data set [1] is < 0.1 µM.
Regarding `Cc1cnc2nc(-c3cc4ccc(N5C[C@@H](C)N[C@@H](C)C5)cc4oc3=O)cn2c1` [Compound 243, 7-[(3R,5S)-3,5-dimethylpiperazin-1-yl]-3-(6-methylimidazo[1,2-a]pyrimidin-2-yl)-2H-chromen-2-one], the melting point was 308 to 310 °C. Also, in the data set on Smn protein, the EC1.5x (concentration giving 1.5-fold Smn protein increase) was 3000 to 10000 nM; the “maximum fold (Fold) increase” value is “** (fold increase between >1.2 and ≤1.35)”. Further, the EC (1.5-fold) in data set [1] lay within 0.3 to 1 µM.
On to `Cc1cn2cc(-c3cc4ccc(N5CCN(C6CCC6)CC5)cc4oc3=O)cc2c(C)n1` [Compound 814, 7-(4-cyclobutylpiperazin-1-yl)-3-(1,3-dimethylpyrrolo[1,2-a]pyrazin-7-yl)-2H-chromen-2-one], for which the melting point fell in the range of 217 to 220 °C. In the data set with Smn protein, the EC1.5x (concentration giving 1.5-fold Smn protein increase) is < 300 nM and the “maximum fold (Fold) increase” value is “***** (fold increase >1.65)”. In addition, the EC (1.5-fold) in data set [1] is < 0.1 µM.
On to `Cc1ccn2cc(-c3cc4ccc(NC5CCNCC5)cc4oc3=O)nc2c1` [Compound 495, 3-(7-methylimidazo[1,2-a]pyridin-2-yl)-7-(piperidin-4-ylamino)-2H-chromen-2-one], for which the melting point was in the range of 232 to 239 °C. In the data set on Smn protein, the “maximum fold (Fold) increase” value was “* (maximum fold increase of ≤1.2)”. The EC (1.5-fold) in data set [1] was in the range of 1 to 3 µM.
For the compound `Cc1cn2cc(-c3cc4ccc(C5CCNCC5)cc4oc3=O)nc2c(C)n1` [Cpd 742, 3-(6,8-dimethylimidazo[1,2-a]pyrazin-2-yl)-7-(piperidin-4-yl)-2H-chromen-2-one], the melting point was 224 to 229 °C. Moreover, in the data set on Smn protein, the EC1.5x (concentration giving 1.5-fold Smn protein increase) is < 300 nM and the “maximum fold (Fold) increase” value is “***** (fold increase >1.65)”. Moreover, in data set [1], the EC (1.5-fold) is < 0.1 µM.

These data come from patent USRE47689E1, “Compounds for treating spinal muscular atrophy” (PTC Therapeutics, Inc., priority 2011, dated 2019).
